Test results published in patent publication US6423696B1, “Inhibition of arylamine N-acetyl transferase” (The United States of America, as represented by the …, priority 1999, dated 2002).
Where two headings read alike, the source gives them in different places.

How the values were obtained:
NAT-2 [1] = target: T1, NAT-2 (Homo sapiens, UniProt P11245); assay: Acetylation in human liver subcellular preparation (cytosol), NAT-2 substrates, cross inhibition; type: biochemical; parameters: from tissue; host or cells: human liver cytosol (105,000 g supernatant); key to inhibition of acetylation of substrate DDS / inhibition of acetylation of substrate SMZ / inhibition of acetylation of substrate INH: ++ = strong inhibition; −− = no inhibition; conditions: for formation of acetylated metabolite, substrate incubated alone: incubated separately with human liver cytosol
T1 sequence (P11245 1-290): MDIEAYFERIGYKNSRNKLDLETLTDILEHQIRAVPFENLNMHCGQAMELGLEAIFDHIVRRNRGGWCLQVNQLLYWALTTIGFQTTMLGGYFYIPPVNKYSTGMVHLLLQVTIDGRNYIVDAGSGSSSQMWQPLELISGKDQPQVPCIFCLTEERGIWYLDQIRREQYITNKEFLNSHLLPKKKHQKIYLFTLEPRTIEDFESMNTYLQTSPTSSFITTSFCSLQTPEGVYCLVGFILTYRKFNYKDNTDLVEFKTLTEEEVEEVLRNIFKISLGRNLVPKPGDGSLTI
Method: The reaction was terminated by the addition of perchloric acid to a final concentration of 1.5%.
INH, DDS, SMZ were incubated with human liver subcellular preparations as described in Example 1. The reactions were allowed to proceed for thirty minutes at 37° C. before termination by addition of perchloric acid. […] For INH, 1-octanesulfonic acid (5 mM) was added to the mobile phase.

NAT-1 [2] = target: T2, NAT-1 (Homo sapiens, UniProt P18440); assay: Acetylation in human liver subcellular preparation (cytosol), NAT-1 substrates, HPLC of N-acetylated metabolites
T2 sequence (P18440 1-290): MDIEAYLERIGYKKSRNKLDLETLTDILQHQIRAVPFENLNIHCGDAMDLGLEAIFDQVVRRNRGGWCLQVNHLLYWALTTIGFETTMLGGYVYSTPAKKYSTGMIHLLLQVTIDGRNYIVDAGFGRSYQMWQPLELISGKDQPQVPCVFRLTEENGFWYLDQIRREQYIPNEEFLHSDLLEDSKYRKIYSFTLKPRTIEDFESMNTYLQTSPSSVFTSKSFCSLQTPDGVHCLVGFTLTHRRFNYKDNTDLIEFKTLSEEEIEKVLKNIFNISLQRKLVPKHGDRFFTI
Method: Human liver was homogenized and prepared by high-speed differential centrifugation. A preliminary centrifugation was performed at 13,000 g for 20 min.
The formation of N-acetylated metabolites was quantified by HPLC. Samples from the incubates were injected onto a reverse-phase column (e.g., Waters Symmetry C18, 5 micron, 4.6×150 mm). […] Drugs and their N-acetylated metabolites were quantitated by UV absorption using a diode-array detector.
The substrates assayed above were then co-incubated with human liver subcellular preparations.

NAT-1 [3] = target: T2, NAT-1; conditions: human volunteer
Method: On the fourth and fifth days, PAS was also administered at its standard dose of 4 g every 8 hours.

NAT-1 [4] = target: T2, NAT-1; conditions: 4 hours
Method: Human hepatocytes were incubated at 37° C. at a ratio of 1 million cells per ml in modified Williams E buffer. Either cryopreserved hepatocytes in suspension or freshly-isolated hepatocytes attached to microtiter plates were used. The reaction was initiated by addition of substrate, and terminated after 4 hours by the addition of perchloric acid. As before, parallel incubations were conducted for drug alone versus drug plus potential inhibitors. Percent inhibition was calculated from the ratio of [Acetylated metabolite]/[parent] with and without the potential inhibitor.

NAT-2 [5] = target: T1, NAT-2; assay: Acetylation in human hepatocyte culture, NAT-2 substrates; type: cell-based; conditions: human hepatocytes
Method: INH, DDS and SMZ were incubated with human hepatocytes as described in Example 1. Parallel cultures were conducted for each drug alone and each drug plus dichlorphenamide as a potential inhibitor. An additional culture of DDS was incubated with SMZ, a potential inhibitor. […] In addition, SMZ inhibited acetylation of DDS.

[6] = human liver cytosol, 30 min, 37° C.

Question: How did the “inhibition of acetylation of substrate SMZ” value (NAT-2 [1]; [6]) turn out when `CCC1(c2ccc(N)cc2)CCC(=O)NC1=O` (stereo not shown) [AG, aminoglutethimide] was run?
Answer: The value was “++”.

Question: For `Nc1ccc(S(=O)(=O)c2ccc(N)cc2)cc1` [DDS, dapsone], which “formation of acetylated metabolite, substrate incubated alone” value (shortened to “formation of acetylated metabolite”) (NAT-2 [1]) is on record?
Answer: Its value is “Acetylated metabolites were found”.

Question: For `NNC(=O)c1ccncc1` [INH, isoniazid], which “formation of acetylated metabolite” value (NAT-2 [1]) is on record?
Answer: Its value is “Acetylated metabolites were found”.

Question: And the “inhibition of acetylation of substrate DDS” value (from here on “inhibition … of substrate DDS”) (NAT-2 [1]; [6])?
Answer: Its value is “++”.

Question: How did the “inhibition of acetylation to Ac-PAS” value (NAT-1 [2]; 200 μM inhibitor co-incubated with 20 μM PAS, human liver cytosol, 15 min, 37° C.) turn out when `Nc1ccc(C(=O)O)cc1` [PABA, para-amino-benzoic acid] was run?
Answer: Its value is “no Ac-PAS was detected”.

Question: Which results are given for `Nc1ccc(C(=O)O)c(O)c1` [PAS, para-amino-salicylate]?
Answer: PAS concentrations in plasma on Day 5 (NAT-1 [3]; PAS 4 g every 8 hours, HPLC, FIG. 5): exceed the levels required to inhibit NAT-1; plasma concentration of Ac-SMX, Day 5 (with PAS) vs Day 3 (baseline) (NAT-1 [3]; SMX 500 mg every 12 hours for 5 days, PAS 4 g every 8 hours on days 4 and 5, FIG. 2): almost completely abolished; reduction of Ac-SMX formation (NAT-1 [4]; 200 μM PAS co-incubated with 200 μM SMX, human hepatocytes): 60%; formation of acetylated metabolite, substrate incubated alone (NAT-1 [4]; 200 μM incubated separately with human hepatocytes): formation of Ac-PAS and Ac-SMX; inhibition of acetylation to Ac-PABA (NAT-1 [2]; 200 μM inhibitor co-incubated with 20 μM PABA, human liver cytosol, 15 min, 37° C.): blockage of all measurable acetylation; inhibition of acetylation to Ac-SMX (NAT-1 [2]; 200 μM inhibitor co-incubated with 200 μM SMX, human liver cytosol, 15 min, 37° C.): 50%; formation of acetylated metabolite, substrate incubated alone (NAT-1 [2]; human liver subcellular preparation, HPLC, FIG. 1): a single metabolic peak

Question: For `Cc1cc(C)nc(NS(=O)(=O)c2ccc(N)cc2)n1` [SMZ, sulphamethazine], which “inhibition of acetylation of DDS” value (NAT-2 [5]; substrate DDS) is on record?
Answer: The value was “inhibited”.

Question: What about the “formation of acetylated metabolite” value (NAT-2 [1]) of the same compound?
Answer: Its value is “Acetylated metabolites were found”.

Question: And the “inhibition … of substrate DDS” value (NAT-2 [1]; [6])?
Answer: Its value is “++”.

Question: How did the “inhibition of acetylation of all substrates (INH, DDS, SMZ)” value (NAT-2 [5]; substrates INH, DDS and SMZ) turn out when `NS(=O)(=O)c1cc(Cl)c(Cl)c(S(N)(=O)=O)c1` [dichlorphenamide] was run?
Answer: The value was “strongly inhibited”.

Question: And the “inhibition … of substrate DDS” value (NAT-2 [1]; [6])?
Answer: The value was “++”.

Question: And the “inhibition of acetylation of substrate INH” value (NAT-2 [1]; substrate INH, human liver cytosol, 30 min, 37° C.)?
Answer: The value was “−−”.

Question: And the “inhibition of acetylation of substrate SMZ” value (NAT-2 [1]; [6])?
Answer: Its value is “++”.
